Experimental data from patent US7803554B2, “Detection of binding factors with fluorescence polarization” (priority 2000, dated 2010).

Legend:
[1] = tested on: mouse monoclonal antibody 8E11; assay: CE/LIF binding stoichiometry of TMR-BPDE oligonucleotides with antibody; details: 24 nM oligonucleotide
Protocol: The separation was carried out at room temperature with a separation voltage of 15 kV. The running buffer were either 1× tris-glycine (25 mM Tris, 192 mM glycine, pH 8.3) or 0.5× tris-glycine (12.5 mM tris and 96 mM glycine, pH 8.3). The capillary was washed approximately every 3 injections with 0.02 M NaOH electrophoretically at 15 kV for 7 min followed by electrophoresis using water and the running buffer for 7 min each. All capillary electrophoresis data were analyzed using Igor Pro software (version 3.1, WaveMetrics Inc., Lake Oswego, Oreg.).
Complex formation of TMR-labeled BPDE-DNA adducts and antibody: TMR-BPDE-16-mer and TMR-BPDE-90-mer samples were diluted to appropriate concentrations in running buffer (tris-glycine, pH 8.3). The double stranded BPDE-90-mer was denatured by heating at 95° C. for 5 min in a heating block. It was then placed on ice to prevent reannealing. After cooling, the samples were briefly centrifuged in a microcentrifuge (Z233M, Hermle) to collect condensation from the side of the tube, then gently mixed to ensure a homogenous solution. TMR-BPDE-16-mer was synthesized as a single-stranded oligonucleotide. […] After addition of antibody to the BPDE-oligonucleotide solutions, the samples were gently vortexed to ensure complete mixing and incubated at the room temperature for 5-10 min, then analyzed by CE/LIF. […]

SSB = SSB (Escherichia coli, UniProt P0AGE0); details: fluorescence quenching methods; Molineux 1975, Krauss 1981; cited from earlier work
Chain of SSB (P0AGE0 2-178 limits assumed): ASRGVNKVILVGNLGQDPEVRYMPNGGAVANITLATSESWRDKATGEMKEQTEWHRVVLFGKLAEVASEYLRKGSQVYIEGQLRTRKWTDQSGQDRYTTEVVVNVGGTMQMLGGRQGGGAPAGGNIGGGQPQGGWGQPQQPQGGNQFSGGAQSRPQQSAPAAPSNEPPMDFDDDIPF

[2] = tested on: mouse monoclonal antibody 8E11; assay: CE/LIF competitive binding of unlabeled BPDE-16-mer and TMR-BPDE-16-mer to antibody; details: 9.6 nM 16mer*, 33 nM antibody
Protocol: Simultaneous binding of two BPDE-DNA adducts to the antibody: Both TMR-labeled and unlabeled BPDE-adducts were allowed to bind with the antibody. The freshly diluted BPDE-16-mer (16mer) and TMR-BPDE-16-mer (16mer*) solutions were mixed together before addition of the antibody. Concentrations of the TMR-BPDE-16-mer and the antibody were kept constant at 9.6 nM and 33.3 nM, respectively, and the unlabeled BPDE-16-mer was varied from 2.5 nM to […]. The sample mixtures were incubated for 5 min at room temperature, then analyzed by CE/LIF. Similarly, the antibody was added to mixtures of the TMR-BPDE-16mer and BPDE-90mer to study the competitive binding and ligand exchange.
The relative changes of the primary and secondary complexes with varying concentrations of unlabeled 16mer when it is incubated with 9.6 nM TMR-labeled 16mer* and 33 nM (5 μg/mL) antibody were measured. When the concentration of the unlabeled 16mer is below 10 nM, the primary complex [Ab(16mer*)] dominates and its amount remains almost constant with increasing concentration of the unlabeled 16 mer up to 10 nM. The total ligand concentration (16mer* and 16mer) is lower compared with that of the antibody, and there are excess antibody binding sites available. Thus, no significant competition between the two ligands takes place. […]

16mer*: 5′-TMR-labeled 16-mer 5′-CCCATTATGCATAACC-3′ with a single BPDE adduct (single BPDE adduct, position not given here)
share of total oligonucleotide present as secondary complex (1:2) ([1]; antibody 1 μg/mL (maximum)): 50%
share of total oligonucleotide present as primary complex (1:1) with the antibody ([1]; antibody 8-16 μg/mL (50-100 nM)): 80-85%

d(pT)8
affinity of SSB (SSB): about 2×10^6 M^−1

d(pT)16
affinity of SSB (SSB): 1.4e+06 M⁻¹

unlabeled 16mer: unlabeled 16-mer 5′-CCCATTATGCATAACC-3′ with a BPDE adduct (chemistry not fully specified)
competitor concentration at which secondary complexes reach a maximum [2]: 100 nM
competitor concentration resulting in disappearance of the primary Ab(16mer*) complex [2]: above 250 nM
